The results in this text go back to ChEMBL document CHEMBL3259665, “Development of bacterial transglycosylase inhibitors as new antibiotics: moenomycin A treatment for drug-resistant Helicobacter pylori” (Bioorg Med Chem Lett, 2014).

The test system of assay [1] is Helicobacter pylori. Kind of assay: Antimicrobial activity against Helicobacter pylori isolated from gastrointestinal disease patient after 72 hrs by Etest method. It is filed as functional.
A short description of assay [2]: Binding affinity to Helicobacter pylori transglycosylase.
Assay [3] relates to Helicobacter pylori. Briefly: Antimicrobial activity against Helicobacter pylori. Type of assay: functional.

Values after ≈ are worked out from the molar mass of the structure shown.

For orientation: MIC90 means the lowest concentration that inhibits either 90% of growth or 90% of the strains tested, depending on the study. A high value points to weaker potency. By Kd is commonly meant the concentration at which binding is half-saturated. For orientation: MIC means the lowest concentration that inhibits growth of the organism. Low values mean greater potency, high ones weaker potency. In assay [1], `C=C(C/C=C(\C)CCC=C(C)C)CCC(C)(C)/C=C/CC/C(C)=C/CO[C@@H](COP(=O)(O)O[C@H]1O[C@H](C(N)=O)[C@@](C)(O)[C@H](OC(N)=O)[C@H]1O[C@@H]1O[C@H](CO[C@@H]2O[C@H](CO)[C@@H](O)[C@H](O)[C@H]2O)[C@@H](O[C@@H]2O[C@H](C)[C@@H](O[C@@H]3O[C@H](C(=O)NC4=C(O)CCC4=O)[C@H](O)[C@H](O)[C@H]3O)[C@H](O)[C@H]2NC(C)=O)[C@H](O)[C@H]1NC(C)=O)C(=O)O` [MOENOMYCIN A] yielded an MIC90 of 2 µg/mL (≈ 1.26 µM). This compound also registered a Kd in assay [2] of 25 nM. Besides, in assay [3], the minimum inhibitory concentration (MIC) is 1.3 µM (≈ 2.06 µg/mL).

With `CC[C@H]1OC(=O)[C@H](C)[C@@H](O[C@H]2C[C@@](C)(OC)[C@@H](O)[C@H](C)O2)[C@H](C)[C@@H](O[C@@H]2O[C@H](C)C[C@H](N(C)C)[C@H]2O)[C@](C)(OC)C[C@@H](C)C(=O)[C@H](C)[C@@H](O)[C@]1(C)O` [CLARITHROMYCIN], in assay [1], the MIC90 is 8 µg/mL (≈ 10.7 µM).

On to `Cc1ncc([N+](=O)[O-])n1CCO` [METRONIDAZOLE], for which, in assay [1], the MIC90 is 16 µg/mL (≈ 93.5 µM).

For the compound `CN(C)[C@@H]1C(O)=C(C(N)=O)C(=O)[C@@]2(O)C(O)=C3C(=O)c4c(O)cccc4[C@@](C)(O)[C@H]3C[C@@H]12` [TETRACYCLINE], the MIC90 in assay [1] came out at 0.5 µg/mL (≈ 1.13 µM). This MIC90 lies about 32-fold lower than the previous one.

In assay [1], `C[C@H]1COc2c(N3CCN(C)CC3)c(F)cc3c(=O)c(C(=O)O)cn1c23.C[C@H]1COc2c(N3CCN(C)CC3)c(F)cc3c(=O)c(C(=O)O)cn1c23.O` [LEVOFLOXACIN] had an MIC90 of 1 µg/mL. Compared with the last compound, the MIC90 is about 2-fold higher.
